Source: ChEMBL document CHEMBL3885861, “Open TG-GATES”

Organism: Rattus norvegicus
Assay: Open TG-GATES - Regimen: Single
Assay type: toxicity, organism-based, Sprague-Dawley
Design: regimen Single, gender Male, age 6 weeks
Conditions: in vivo, po, 0 mg/kg, route gavage, dose level Control; for APTT / Bas / Eos / Fbg / Hb / Ht / Lym / MCH / MCHC / MCV / Mono / Neu / PT / Plat / RBC / Ret / WBC: tissue Blood; for KIDNEY_L / KIDNEY_R / KIDNEY_TOTAL: tissue Kidney; for LIVER: tissue Liver; for A/G / ALP / ALT / AST / BUN / CRE / Ca / Cl / DBIL / GLC / IP / K / LDH / Na / PL / RALB / TBIL / TC / TG / TP / gamma-GTP: tissue Plasma

SMILES: Cc1cccc(C)c1OCC(C)N (configuration not stated) [MEXILETINE]
- TERMINAL_BW (3 h): 222.3 g
- APTT (3 h): 22.2 s
- Bas (3 h): 0%
- Eos (3 h): 0.8%
- Fbg (3 h): 310.6 mg/dL
- Hb (3 h): 12.8 g/dL
- Ht (3 h): 39.4%
- Lym (3 h): 80.6%
- MCH (3 h): 21 pg
- MCHC (3 h): 32.4%
- MCV (3 h): 64.8 fL
- Mono (3 h): 1.8%
- Neu (3 h): 16.2%
- PT (3 h): 16.1 s
- Plat (3 h): 107.7 x10_4/uL
- RBC (3 h): 608.6 x10_4/ul
- Ret (3 h): 8.8%
- WBC (3 h): 96.5 x10_2/uL
- KIDNEY_L (3 h): 0.9 g
- KIDNEY_R (3 h): 0.9 g
- KIDNEY_TOTAL (3 h): 1.9 g
- LIVER (3 h): 10.2 g
- A/G (3 h): 1.2
- ALP (3 h): 1498 IU/L
- ALT (3 h): 45.2 IU/L
- AST (3 h): 77.4 IU/L
- BUN (3 h): 13.6 mg/dL
- CRE (3 h): 0.2 mg/dL
- Ca (3 h): 10.6 mg/dL
- Cl (3 h): 107 meq/L
- DBIL (3 h): 0 mg/dL
- GLC (3 h): 192 mg/dL
- IP (3 h): 8.5 mg/dL
- K (3 h): 4 meq/L
- LDH (3 h): 181.2 IU/L
- Na (3 h): 142 meq/L
- PL (3 h): 132.4 mg/dL
- RALB (3 h): 3 g/dL
- TBIL (3 h): 0.016 mg/dL
- TC (3 h): 77 mg/dL
- TG (3 h): 62.8 mg/dL
- TP (3 h): 5.5 g/dL
- gamma-GTP (3 h): 1.6 IU/L
- TERMINAL_BW (6 h): 218.2 g
- APTT (6 h): 22.4 s
- Bas (6 h): 0%
- Eos (6 h): 0.8%
- Fbg (6 h): 305.2 mg/dL
- Hb (6 h): 12.9 g/dL
- Ht (6 h): 39.5%
- Lym (6 h): 78.4%
- MCH (6 h): 20.6 pg
- MCHC (6 h): 32.7%
- MCV (6 h): 63.1 fL
- Mono (6 h): 2.8%
- Neu (6 h): 17.2%
- PT (6 h): 16 s
- Plat (6 h): 113.7 x10_4/uL
- RBC (6 h): 627.6 x10_4/ul
- Ret (6 h): 7.8%
- WBC (6 h): 112.2 x10_2/uL
- KIDNEY_L (6 h): 1 g
- KIDNEY_R (6 h): 1 g
- KIDNEY_TOTAL (6 h): 2 g
- LIVER (6 h): 9.4 g
- A/G (6 h): 1.3
- ALP (6 h): 1119.6 IU/L
- ALT (6 h): 37.4 IU/L
- AST (6 h): 70.2 IU/L
- BUN (6 h): 10.4 mg/dL
- CRE (6 h): 0.2 mg/dL
- Ca (6 h): 10.5 mg/dL
- Cl (6 h): 105.2 meq/L
- DBIL (6 h): 0 mg/dL
- GLC (6 h): 192.4 mg/dL
- IP (6 h): 9.2 mg/dL
- K (6 h): 4.2 meq/L
- LDH (6 h): 187.6 IU/L
- Na (6 h): 140.6 meq/L
- PL (6 h): 125 mg/dL
- RALB (6 h): 3 g/dL
- TBIL (6 h): 0.028 mg/dL
- TC (6 h): 72 mg/dL
- TG (6 h): 66.2 mg/dL
- TP (6 h): 5.4 g/dL
- gamma-GTP (6 h): 1.4 IU/L
- TERMINAL_BW (9 h): 213.9 g
- APTT (9 h): 22.8 s
- Bas (9 h): 0%
- Eos (9 h): 0.8%
- Fbg (9 h): 311 mg/dL
- Hb (9 h): 12.9 g/dL
- Ht (9 h): 40.1%
- Lym (9 h): 77.2%
- MCH (9 h): 20.7 pg
- MCHC (9 h): 32.2%
- MCV (9 h): 64.1 fL
- Mono (9 h): 2.4%
- Neu (9 h): 19.6%
- PT (9 h): 16.2 s
- Plat (9 h): 105.6 x10_4/uL
- RBC (9 h): 625.4 x10_4/ul
- Ret (9 h): 8%
- WBC (9 h): 86.8 x10_2/uL
- KIDNEY_L (9 h): 0.9 g
- KIDNEY_R (9 h): 0.9 g
- KIDNEY_TOTAL (9 h): 1.8 g
- LIVER (9 h): 8.7 g
- A/G (9 h): 1.3
- ALP (9 h): 1333.8 IU/L
- ALT (9 h): 35.6 IU/L
- AST (9 h): 66.2 IU/L
- BUN (9 h): 12.2 mg/dL
- CRE (9 h): 0.2 mg/dL
- Ca (9 h): 10.5 mg/dL
- Cl (9 h): 105.2 meq/L
- DBIL (9 h): 0 mg/dL
- GLC (9 h): 188.8 mg/dL
- IP (9 h): 9.4 mg/dL
- K (9 h): 4.2 meq/L
- LDH (9 h): 133.6 IU/L
- Na (9 h): 141.6 meq/L
- PL (9 h): 122 mg/dL
- RALB (9 h): 3 g/dL
- TBIL (9 h): 0.02 mg/dL
- TC (9 h): 66.2 mg/dL
- TG (9 h): 53.2 mg/dL
- TP (9 h): 5.5 g/dL
- gamma-GTP (9 h): 1 IU/L
- TERMINAL_BW (24 h): 223.6 g
- APTT (24 h): 20.9 s
- Bas (24 h): 0%
- Eos (24 h): 1%
- Fbg (24 h): 304 mg/dL
- Hb (24 h): 13 g/dL
- Ht (24 h): 40.2%
- Lym (24 h): 78.4%
- MCH (24 h): 20.6 pg
- MCHC (24 h): 32.3%
- MCV (24 h): 63.6 fL
- Mono (24 h): 2%
- Neu (24 h): 17.6%
- PT (24 h): 16.4 s
- Plat (24 h): 128.5 x10_4/uL
- RBC (24 h): 632.6 x10_4/ul
- Ret (24 h): 6.7%
- WBC (24 h): 88.8 x10_2/uL
- KIDNEY_L (24 h): 1 g
- KIDNEY_R (24 h): 1 g
- KIDNEY_TOTAL (24 h): 1.9 g
- LIVER (24 h): 9.9 g
- A/G (24 h): 1.3
- ALP (24 h): 1840.4 IU/L
- ALT (24 h): 49.8 IU/L
- AST (24 h): 73.8 IU/L
- BUN (24 h): 15.6 mg/dL
- CRE (24 h): 0.2 mg/dL
- Ca (24 h): 10.7 mg/dL
- Cl (24 h): 107 meq/L
- DBIL (24 h): 0 mg/dL
- GLC (24 h): 196.4 mg/dL
- IP (24 h): 7.6 mg/dL
- K (24 h): 4 meq/L
- LDH (24 h): 166 IU/L
- Na (24 h): 143.2 meq/L
- PL (24 h): 130.6 mg/dL
- RALB (24 h): 3.1 g/dL
- TBIL (24 h): 0.008 mg/dL
- TC (24 h): 70 mg/dL
- TG (24 h): 74.6 mg/dL
- TP (24 h): 5.6 g/dL
- gamma-GTP (24 h): 1.8 IU/L
